These results are taken from patent publication US20090226367A1, “COMPOSITIONS COMPRISING AN ANTI-CA125 ANTIBODY AND A CYTOTOXIC COMPOUND AND THEIR USE FOR THE TREATMENT OF CANCER” (priority 2005, published 2009).

Each structure is given as a SMILES string.

The subject of data set [1] is OVCAR-3 subcutaneous tumors. Put plainly: subcutaneous OVCAR-3 xenograft model, tumor growth. Format: in vivo, NCr nu/nu mice. Conditions: for Tumor Regression (number of animals): groups of 8 mice. The protocol: Model of Human Cancer: A subcutaneous OVCAR-3 xenograft model was used.
Animals: Female NCr nu/nu (“nude”) mice (Taconic Farms, Germantown, N.Y.) 6-7 weeks old were used for all studies. All animals were housed in sterile micro-isolators, and were given autoclaved food and water ad libitum.
OVCAR-3 cells were serially propagated in vivo 3 times within the peritoneal cavities of NCr nu/nu mice, followed by subcutaneous implantation in the flank of the mice. […] Mice were injected with 0.2 ml volume of the cell suspension for a final dose of 3×10^6 cells. Beginning approximately 10 days post-implantation, palpable tumors were measured with electronic calipers (Fowler Instruments, Newton, Mass.) across two perpendicular dimensions. Mice were randomly sorted into groups of eight based on tumor volume. […] Tumor measurements and observations were recorded twice a week. Tumor volume was calculated using the standard formula (Length×Width^2)×0.5.
Control groups consisted of mice injected with 0.9% sodium chloride alone. […] Tumors were measured two times per week. Mice were sacrificed when the tumor volume was greater than 10% of their body weight.
Tumor volumes were compared by Mann-Whitney analysis using Prizm software (GraphPad Software, Inc.). Regression was defined as beginning when a tumor reached <50% of its starting volume and ending when the tumor reached >50% of its initial volume. Partial regression (PR) was defined as when a tumor decreased by 50% or more in volume for at least 7 days, and then later regrew. Complete regression (CR) was defined as when a tumor disappeared for at least 7 days.

For data set [2] the following is noted: nude mice; cited from earlier work.
Setting [3] is: paclitaxel 10 mg/kg weekly for three weeks (q3d7).

`CC(=O)O[C@H]1C(=O)[C@@]2(C)[C@H]([C@H](OC(=O)c3ccccc3)[C@]3(O)C[C@H](OC(=O)[C@H](O)[C@@H](NC(=O)c4ccccc4)c4ccccc4)C(C)=C1C3(C)C)[C@]1(OC(C)=O)CO[C@@H]1C[C@@H]2O` [Paclitaxel, paclitaxel]: the “% T/C” value was found to be 58% in data set [1] (paclitaxel 10 mg/kg single dose (day 0), day 40, relative to saline control) and 29% in data set [1] (paclitaxel 10 mg/kg weekly for three weeks (q3d7), day 40). Also, the “Tumor Regression (number of animals)” value in data set [1] (paclitaxel 10 mg/kg single dose (day 0)) is listed as “no animals had observable regression of tumors”; in data set [1] (setting [3]), 1. Also, the “Duration (days) of tumor regression” value in data set [1] (setting [3]) turned out to be 14 days. The “PR (partial regression, number of animals)” value in data set [1] (setting [3]) is listed as 1. For the same compound, the “animals demonstrating regression of tumors” value in data set [1] (three weekly treatments with 10 mg/kg paclitaxel) is 10%. Moreover, the MTD in data set [2] is over 30 mg/kg.
